# Laboratory results from patent US4396607A, “Muramyl peptide derivatives and pharmaceutical compositions” (priority 1978, dated 1983).
# Experiments:
# Klebsiella pneumoniae = test: Anti-infectious activity with respect to Klebsiella; assay type: in vivo; conditions: mice, i.v. treatment 24h before 2 × 10^4 bacteria i.m.
# Method: The survival of groups of inoculated mice under the above conditions and treated by means of the products according to the invention was followed.
# The infecting dose was 2.10^4 Klebsiella; it was administered by the intramuscular route.
# The administration of the tested product was carried out by the intravenous route in 0.2 ml of apyrogenic physiological solution, the controls receiving the solution alone. It was carried out 24 hours before the inoculation.
# The percentage protection indicated is a difference of the percentages of survivors of the treated group with respect to the control group.
# [1] = tested on: bovine serum albumin (BSA); test: Adjuvant character in the aqueous phase (antibody titer by passive hemagglutination); assay type: in vivo, Swiss mice; conditions: mice, 0.5 mg BSA with 0.1 mg tested substance SC in isotonic saline, booster day 30, titer at the 36th day
# Method: Groups of 8 Swiss mice aged two months received, by sub-cutaneous injection (SC), 0.5 mg of antigen constituted by bovine serum albumin (BSA) with 0.1 mg or without the tested substance in an isotonic saline solution. This high dose of antigen, because it is situated at the limit of the paralyzing dose with respect to the immunitary response, results, for this reason, in a weak or zero response to the antigen only in the controls: It constitutes therefore a severe criterien to establish the activity of an adjuvant substance. Thirty days later, the mice received, by the same administrative route, a booster containing 0.1 mg of the same antigen.
# The antibody level was determined, six days after the booster, by passive hemagglutination using sheep's red blood corpuscles treated with formalin and covered with the antigen studied according to the method described by A. A. HIRATA and M. W. BRANDISS (J. Immunol., 100, 641-648, 1968).
# The antibody titer, represented by the maximum serum dilution agglutinating a given amount of sheep corpuscles, reaches a maximum at the 36th day and is established in the following manner: […]
# Ovalbumin = test: Adjuvant character in emulsion (delayed hypersensitivity and antibodies); assay type: in vivo, Hartley guinea pigs; conditions: guinea pigs, 50 μg in AlF emulsion with 1 mg ovalbumin; for Log2 of the hemagglutinating titer: serum day 21; for HSR (diameter of the delayed hypersensitivity reaction): skin test day 18, read 48 hours later
# Method: The tests were carried out on batches of 6 male Hartley guinea pigs of 350 g. The administration was done by intradermal injection into the plantar pad of each of the rear paws. Ovalbumin (constituting the antigen) in the amount of 1 mg is prepared in 0.1 ml of an emulsion of saline isotonic solution, in any oily phase constituted either by the Freund imcomplete adjuvant (FIA), or by the complete adjuvant (FCA) formed by the FIA to which is added 0.1 mg of whole Mycobacterium smegmatis cells. The compound according to the invention was administered in the amount of 0.05 mg added in the emulsion containing the FIA.
# Eighteen days after this immunization, possible delayed hypersensitivity reactions to the antigen were sought by injecting by the intradermal route 0.01 mg of ovalbumin in the side of the animals, and 48 hours later, the reaction of the point of injection was observed. The diameter in millimeters of the reaction thus caused was measured.
# Twenty-one days after the injection, the animals were bled. […]
# [2] = Toxicity (lethal dose 50) by parenteral administration in the adrenalectomised mouse; assay type: in vivo, mice
# Method: The toxicity of the products according to the invention was investigated by parenteral administration in mice. It was observed that the toxic doses were of an order of magnitude very much higher than that of the doses at which these products manifest their activity. Thus the lethal dose 50 of the products according to the invention tested was higher than 5 mg/kg of animal in the adrenalectomised mouse, whose sensitivity to endotoxins is well-known.
# [3] = tested on: Limulus amoebocyte lysate; test: Limulus test (endotoxic type activity); conditions: gel formation after 20 minutes at 37° C.
# Method: For this purpose, 0.1 ml of the Limulus amoebocyte lysate preparation (marketed by the MALLINCKRODT Company, at St. LOUIS, U.S.A.) was mixed with an equal volume of the tested product at various concentrations in solution in apyrogenic distilled water. The vessels used were also made apyrogenic by dry heating in the oven, at 180° C., for 2 hours.
# After incubating the mixture for 20 minutes at 37° C. in tubes, the formation of gel characteristics of the presence of endotoxin was estimated.
# Listeria monocytogenes = test: Anti-infectious activity with respect to Listeria; assay type: in vivo; conditions: mice, i.v., 1 day before infection
Compound,% of protection (Klebsiella pneumoniae; dose per mouse 100) [%],Number of survivors at day 3 (Klebsiella pneumoniae; dose per mouse 100),Number of survivors at day 5 (Klebsiella pneumoniae; dose per mouse 100),Number of survivors at day 8 (Klebsiella pneumoniae; dose per mouse 100),Log2 hemagglutinating titer [1],Log2 of the hemagglutinating titer (Ovalbumin),HSR (diameter of the delayed hypersensitivity reaction) (Ovalbumin) [millimeters],lethal dose 50 [2],also measured
"CCCCOC(=O)CC[C@@H](NC(=O)[C@H](C)NC(=O)[C@@H](C)O[C@H]1[C@H](O)[C@@H](CO)OC(O)[C@@H]1NC(C)=O)C(=O)OC (stereo partly drawn) [MDPA(butyl--ester)OCH3, α-methyl, γ-n-butyl N-acetyl-muramyl-L-alanyl-D-glutamic diester]",38,12,11,9,–,–,–,–,–
"CCCCCCCCCCCCCCCOC(=O)[C@H](C)NC(=O)CC[C@@H](NC(=O)[C@H](C)NC(=O)[C@@H](C)O[C@H]1[C@H](O)[C@@H](CO)OC(O)[C@@H]1NC(C)=O)C(N)=O (stereo partly drawn) [MDP--L--Ala--penta--decyl--ester, Pentadecyl ester of N-acetyl-muramyl-L-alanyl-D-isoglutaminyl-L-alanine]",50,24,16,15,8.39 ± 0.89,10.97 ± 1.04,5,–,–
"CCCCCCCCCCNC(=O)[C@H](C)NC(=O)CC[C@@H](NC(=O)[C@H](C)NC(=O)[C@@H](C)O[C@H]1[C@H](O)[C@@H](CO)OC(O)[C@@H]1NC(C)=O)C(N)=O (stereo partly drawn) [MDP--L--Ala--decyl--amide, Decylamide of N-acetyl-muramyl-L-alanyl-D-isoglutamine-L-alanine]",50,21,17,16,8.64 ± 0.95,–,–,higher than 5 mg/kg,Limulus test result (concentration of the tested product) [3]: 100 µg/mL
"CCCCCCCCCCOC(=O)[C@H](CCCCN)NC(=O)CC[C@@H](NC(=O)[C@H](C)NC(=O)[C@@H](C)O[C@H]1[C@H](O)[C@@H](CO)OC(O)[C@@H]1NC(C)=O)C(N)=O (stereo partly drawn) [MDP--L--Lys--decyl--ester, Decyl ester of N-acetyl-muramyl-L-alanyl-D-isoglutaminyl-L-lysine]",71,22,20,20,9.64 ± 0.70,–,–,higher than 5 mg/kg,–
"CC(=O)N[C@H]1C(O)O[C@H](CO)[C@@H](O)[C@@H]1O[C@H](C)C(=O)N[C@@H](C)C(=O)N[C@H](CCC(=O)N[C@@H](C)C(=O)OCc1ccccc1)C(N)=O (stereo partly drawn) [MDP--L--Ala--benzyl--ester, Benzyl ester of N-acetyl-muramyl-L-alanyl-D-isoglutaminyl-L-alanine]",46,24,14,14,7.47 ± 0.89,12.31 ± 0.82,12.5 ± 3.5,higher than 5 mg/kg,–
"CCCCCCCCCCOC(=O)CC[C@@H](NC(=O)[C@H](C)NC(=O)[C@@H](C)O[C@H]1[C@H](O)[C@@H](CO)OC(O)[C@@H]1NC(C)=O)C(=O)OC (stereo partly drawn) [MDPA(decyl--ester)OCH3, α-methyl, γ-decyl N-acetyl-muramyl-L-alanyl-D-glutamic diester]",44,13,11,10,–,–,–,–,–
"CCCCCCCCCCOC(=O)CC[C@@H](NC(=O)[C@H](C)NC(=O)[C@@H](C)O[C@H]1[C@H](O)[C@@H](CO)OC(O)[C@@H]1NC(C)=O)C(N)=O (stereo partly drawn) [MDP--decyl--ester, Decyl ester of N-acetyl-muramyl-L-alanyl-D-isoglutamine]",75,24,21,21,8.64 ± 1.31,–,–,higher than 5 mg/kg,Number of survivors at day 3 (Klebsiella pneumoniae; dose per mouse 10): 1; Number of survivors at day 5 (Klebsiella pneumoniae; dose per mouse 10): 0; Number of survivors at day 8 (Klebsiella pneumoniae; dose per mouse 10): 0
"CCCCOC(=O)[C@H](C)NC(=O)CC[C@@H](NC(=O)[C@H](C)NC(=O)[C@@H](C)O[C@H]1[C@H](O)[C@@H](CO)OC(O)[C@@H]1NC(C)=O)C(N)=O (stereo partly drawn) [MDP--L--Ala--butyl--ester, n-butyl ester of N-acetyl-muramyl-L-alanyl-D-isoglutaminyl-L-alanine]",54,23,18,17,10.31 ± 0.49,13.31 ± 0.52,18 ± 2,–,–
"CCCCCCCCCCOC(=O)[C@H](C)NC(=O)CC[C@@H](NC(=O)[C@H](C)NC(=O)[C@@H](C)O[C@H]1[C@H](O)[C@@H](CO)OC(O)[C@@H]1NC(C)=O)C(N)=O (stereo partly drawn) [MDP--L--Ala--decyl--ester, Decyl ester of N-acetyl-muramyl-L-alanyl-D-isoglutaminyl-L-alanine]",44,30,22,22,6.23 ± 1.23,–,–,–,Limulus test result (concentration of the tested product) [3]: 100 µg/mL; % of protection (Listeria monocytogenes; 10 μg per mouse): 50%; Number of surviving animals at day 5 (Listeria monocytogenes; 10 μg per mouse): 7; Number of surviving animals at day 10 (Listeria monocytogenes; 10 μg per mouse): 5; % of protection (Listeria monocytogenes; 100 μg per mouse): 38%; Number of surviving animals at day 5 (Listeria monocytogenes; 100 μg per mouse): 19; Number of surviving animals at day 10 (Listeria monocytogenes; 100 μg per mouse): 11; % of protection (Listeria monocytogenes; 300 μg per mouse): 23%; Number of surviving animals at day 5 (Listeria monocytogenes; 300 μg per mouse): 11; Number of surviving animals at day 10 (Listeria monocytogenes; 300 μg per mouse): 5
